Patent publication US8987314B2, “Amide, urea or sulfone amide linked benzothiazole inhibitors of endothelial lipase” (Bristol-Myers Squibb Company, priority 2012, dated 2015)
Read-outs that look alike come from different tables or passages of the source.

How the values were obtained:
Endothelial lipase (EL) = Endothelial lipase (EL) (Homo sapiens (Human), UniProt Q9Y5X9); experiment: EL assay: endothelial lipase activity with fluorescent substrate A10070 in DMPG vesicles; type: biochemical
In short: (§1)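 EL from conditioned medium of HT-1080 cells engineered to overexpress endogenous EL; HL partially purified from conditioned medium of HL-overexpressing COS cells. Enzyme preincubated with compound 30 min at 37° C in 50 mM HEPES pH 8.0, 50 mM NaCl, 1 mM CaCl2; DMPG vesicles carrying FRET substrate (0.11 mole fraction) then added.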

hepatic lipase (HL) = hepatic lipase (HL) (Homo sapiens (Human), UniProt P11150); experiment: HL assay: hepatic lipase activity with fluorescent substrate A10070 in DMPG vesicles; type: biochemical
Chain of hepatic lipase (HL) (P11150 23-499, species assumed): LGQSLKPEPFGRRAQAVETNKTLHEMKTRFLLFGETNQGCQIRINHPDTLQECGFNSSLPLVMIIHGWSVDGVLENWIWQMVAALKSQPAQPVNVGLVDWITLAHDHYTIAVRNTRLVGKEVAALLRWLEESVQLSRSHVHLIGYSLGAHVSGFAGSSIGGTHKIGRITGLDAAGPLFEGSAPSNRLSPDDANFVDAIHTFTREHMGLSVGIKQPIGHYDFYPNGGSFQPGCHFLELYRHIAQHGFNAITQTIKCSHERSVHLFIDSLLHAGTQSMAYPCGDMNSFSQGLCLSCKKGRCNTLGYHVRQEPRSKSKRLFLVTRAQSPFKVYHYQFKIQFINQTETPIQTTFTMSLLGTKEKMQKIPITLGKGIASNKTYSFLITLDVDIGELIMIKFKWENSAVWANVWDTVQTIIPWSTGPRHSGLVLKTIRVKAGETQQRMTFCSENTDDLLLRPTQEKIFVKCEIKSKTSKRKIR
In short: as §1

[1] = EL from conditioned media of HT-1080 cells, 30 min incubation with compound at 37° C., A10070/DMPG vesicles
[2] = HL partially purified from conditioned media of COS cells, 30 min incubation with compound at 37° C., A10070/DMPG vesicles

Chain of Endothelial lipase (EL) (Q9Y5X9 21-500): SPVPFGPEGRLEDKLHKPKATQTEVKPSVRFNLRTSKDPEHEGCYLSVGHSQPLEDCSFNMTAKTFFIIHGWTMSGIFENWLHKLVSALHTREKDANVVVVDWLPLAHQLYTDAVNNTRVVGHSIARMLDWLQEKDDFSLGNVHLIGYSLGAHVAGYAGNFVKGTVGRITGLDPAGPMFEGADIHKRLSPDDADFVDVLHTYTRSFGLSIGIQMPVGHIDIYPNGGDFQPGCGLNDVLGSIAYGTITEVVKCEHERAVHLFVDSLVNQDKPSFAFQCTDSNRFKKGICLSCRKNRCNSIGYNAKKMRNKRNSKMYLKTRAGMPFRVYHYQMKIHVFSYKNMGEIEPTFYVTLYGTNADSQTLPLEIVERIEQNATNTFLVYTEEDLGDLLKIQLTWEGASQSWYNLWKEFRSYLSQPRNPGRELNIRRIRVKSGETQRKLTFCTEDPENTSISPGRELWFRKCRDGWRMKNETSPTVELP

SMILES	IC50 (Endothelial lipase (EL)) [nM]	IC50 (hepatic lipase (HL)) [nM]	IC50 (Endothelial lipase (EL); [1]) [nM]	IC50 (hepatic lipase (HL); [2]) [nM]
Cn1cc(-c2ccc3nc(C(C(=O)NCCS(N)(=O)=O)S(=O)(=O)Cc4cccc(C(F)(F)F)c4)sc3c2)ccc1=O (centres unmarked) [Example B366, 2-[6-(1-methyl-6-oxo-1,6-dihydropyridin-3-yl)-1,3-benzothiazol-2-yl]-N-(2-sulfamoylethyl)-2-{[3-(trifluoromethyl)phen-yl]methanesulfonyl}a-cetamide]	4.4	219		
Cn1ccc(-c2ccc3nc(C(C(=O)NCCS(N)(=O)=O)S(=O)(=O)Cc4ccc(OC(F)(F)F)cc4)sc3c2)cc1=O (centres unmarked) [Example B368, 2-[6-(1-methyl-2-oxo-1,2-dihydropyridin-4-yl)-1,3-benzothiazol-2-yl]-N-(2-sulfamoylethyl)-2-{[4-(trifluoromethoxy)phen-yl]methanesulfonyl}a-cetamide]	15.8	1600		
COCCOc1ccc(-c2ccc3sc(C(C(=O)NCCS(N)(=O)=O)S(C)(=O)=O)nc3c2)cc1 (centres unmarked) [Example B370, 2-methanesulfonyl-2-{5-[4-(2-methoxyethoxy)phen-yl]-1,3-benzothiazol-2-yl}-N-(2-sulfamoylethyl)a-cetamide]	1.8	15.5		
CC(=O)Nc1ccc(-c2ccc3sc(C(C(=O)NCCS(N)(=O)=O)S(C)(=O)=O)nc3c2)cc1 (centres unmarked) [Example B371, 2-[5-(4-acetamidophenyl)-1,3-benzothiazol-2-yl]-2-methanesulfonyl-N-(2-sulfamoylethyl)acetamide]	3	96.3		
CS(=O)(=O)C(C(=O)NCCS(N)(=O)=O)c1nc2cc(-c3ccc(F)nc3)ccc2s1 (centres unmarked) [Example B372, 2-[5-(6-fluoropyridin-3-yl)-1,3-benzothiazol-2-yl]-2-methanesulfonyl-N-(2-sulfamoylethyl)acetamide]	2.5	124		
CS(=O)(=O)C(C(=O)NCCS(N)(=O)=O)c1nc2cc(-c3ncccn3)ccc2s1 (centres unmarked) [Example B374, 2-methanesulfonyl-2-[5-(pyrimidin-2-yl)-1,3-benzothiazol-2-yl]-N-(2-sulfamoylethyl)acetamide]	0.8	23.7		
CC(=O)Nc1cccc(-c2ccc3sc(C(C(=O)NCCS(N)(=O)=O)S(C)(=O)=O)nc3c2)c1 (centres unmarked) [Example B379, 2-[5-(3-acetamidophenyl)-1,3-benzothiazol-2-yl]-2-methanesulfonyl-N-(2-sulfamoylethyl)acetamide]	0.5	83.7		
CS(=O)(=O)C(C(=O)NCCS(N)(=O)=O)c1nc2cc(-c3cccc(F)n3)ccc2s1 (centres unmarked) [Example B380, 2-[5-(6-fluoropyridin-2-yl)-1,3-benzothiazol-2-yl]-2-methanesulfonyl-N-(2-sulfamoylethyl)acetamide]	2	18.5		
CC(C)(C)OC(=O)N1CC=C(c2ccc3sc(C(C(=O)NCCS(N)(=O)=O)S(C)(=O)=O)nc3c2)CC1 (centres unmarked) [Example B382, tert-butyl 4-(2-{methanesulfonyl[(2-sulfa-moylethyl)carbamoyl]meth-yl}-1,3-benzothiazol-5-yl)-1,2,3,6-tetrahydropyridine-1-carboxylate]	3.1	36.5		
Cn1nccc1-c1ccc2sc(C(C(=O)NCCS(N)(=O)=O)S(C)(=O)=O)nc2c1 (centres unmarked) [Example B384, 2-methanesulfonyl-2-[5-(1-methyl-1H-pyrazol-5-yl)-1,3-benzothiazol-2-yl]-N-(2-sulfamoylethyl)a-cetamide]	8.2	828		
CS(=O)(=O)C(C(=O)NCCS(N)(=O)=O)c1nc2cc(-c3ccc(F)nc3F)ccc2s1 (centres unmarked) [Example B385, 2-[5-(2,6-difluoropyridin-3-yl)-1,3-benzothiazol-2-yl]-2-methanesulfonyl-N-(2-sulfamoylethyl)a-cetamide]	3.5	20.5		
CC(C)(C)OC(=O)c1ccc(-c2ccc3nc(C(C(=O)N[C@@H]4CCNC4=O)S(=O)(=O)Cc4ccccc4)sc3c2)cc1 (stereo partly drawn) [Example B386, tert-butyl 4-[2-({[(3R)-2-oxopyrrolidin-3-yl]carbamoyl}(phenyl-methanesulfonyl)methyl)-1,3-benzothiazol-6-yl]benzoate]	17.1	14.3		
CC(C)(O)Cn1ccc(-c2ccc3sc(C(C(=O)NCCS(N)(=O)=O)S(C)(=O)=O)nc3c2)cc1=O (centres unmarked) [Example B389, 2-{5-[1-(2-hydroxy-2-methylpropyl)-2-oxo-1,2-dihydropyridin-4-yl]-1,3-benzothiazol-2-yl}-2-methanesulfonyl-N-(2-sulfamoylethyl)acetamide]	2	6300		
CC(C)(O)Cn1cc(-c2ccc3sc(C(C(=O)NCCS(N)(=O)=O)S(C)(=O)=O)nc3c2)ccc1=O (centres unmarked) [Example B390, 2-{5-[1-(2-hydroxy-2-methylpropyl)-6-oxo-1,6-dihydropyridin-3-yl]-1,3-benzothiazol-2-yl}-2-methanesulfonyl-N-(2-sulfamoylethyl)acetamide]	3.5	10000		
CS(=O)(=O)C(C(=O)NCCS(N)(=O)=O)c1nc2cc(C(=O)O)ccc2s1 (centres unmarked) [Example B392, 2-(1-(Methylsulfonyl)-2-oxo-2-((2-sulfamoylethyl)amino)ethyl)benzo[d]thiazole-5-carboxylic acid]			3.1	92.7
CS(=O)(=O)C(C(=O)NCCS(N)(=O)=O)c1nc2cc(C(=O)N3CC(F)(F)C3)ccc2s1 (centres unmarked) [Example B393, 2-[5-(3,3-difluoroazetidine-1-carbonyl)-1,3-benzothiazol-2-yl]-2-methanesulfonyl-N-(2-sulfamoylethyl)acetamide]	50.3	5750		
CS(=O)(=O)C(C(=O)NCCS(N)(=O)=O)c1nc2cc(C(=O)NCCc3ccc(F)cc3)ccc2s1 (centres unmarked) [Example B394, N-[2-(4-fluorophenyl)ethyl]-2-{methanesulfonyl[(2-sulfa-moylethyl)carbamoyl]meth-yl}-1,3-benzothiazole-5-carboxamide]	37.4	1600		
CS(=O)(=O)C(C(=O)NCCS(N)(=O)=O)c1nc2ccc(-c3nnc(-c4ccc(F)cc4)o3)cc2s1 (centres unmarked) [Example B395, 2-(6-(5-(4-Fluorophenyl)-1,3,4-oxadiazol-2-yl)benzo[d]thiazol-2-yl)-2-(methylsulfonyl)-N-(2-sulfamoylethyl)acetamide]			148	275
CCNC(=O)CNC(=O)C(c1nc2ccc(-c3ccc(F)nc3)cc2s1)S(=O)(=O)CCOC (centres unmarked) [Example B397, N-[(ethylcarbamoyl)methyl]-2-[6-(6-fluoropyridin-3-yl)-1,3-benzothiazol-2-yl]-2-(2-methoxyethanesulfonyl)acetamide]			109	460

Further lines, results first:

IC50 (Endothelial lipase (EL)) [nM]	IC50 (hepatic lipase (HL)) [nM]	IC50 (Endothelial lipase (EL); [1]) [nM]	IC50 (hepatic lipase (HL); [2]) [nM]	SMILES
17.2	2.1			NS(=O)(=O)CCNC(=O)C(c1nc2ccc(-c3ccccc3F)cc2s1)S(=O)(=O)Cc1ccc(OC(F)(F)F)cc1 (centres unmarked) [Example B365, 2-[6-(2-fluorophenyl)-1,3-benzothiazol-2-yl]-N-(2-sulfamoylethyl)-2-{[4-(trifluoromethoxy)phen-yl]methanesulfonyl}a-cetamide]
13.5	2210			COCCn1ccc(-c2ccc3nc(C(C(=O)NCCS(N)(=O)=O)S(=O)(=O)Cc4ccc(C(F)(F)F)cc4)sc3c2)cc1=O (centres unmarked) [Example B367, 2-{6-[1-(2-methoxyethyl)-2-oxo-1,2-dihydropyridin-4-yl]-1,3-benzothiazol-2-yl}-N-(2-sulfamoylethyl)-2-{[4-(trifluoromethyl)phen-yl]methanesulfonyl}a-cetamide]
1.5	414			CS(=O)(=O)C(C(=O)NCCS(N)(=O)=O)c1nc2cc(-c3ccnc(F)c3)ccc2s1 (centres unmarked) [Example B369, 2-[5-(2-fluoropyridin-4-yl)-1,3-benzothiazol-2-yl]-2-methanesulfonyl-N-(2-sulfamoylethyl)acetamide]
3.3	45.7			CS(=O)(=O)C(C(=O)NCCS(N)(=O)=O)c1nc2cc(-c3cnoc3)ccc2s1 (centres unmarked) [Example B373, 2-methanesulfonyl-2-[5-(1,2-oxazol-4-yl)-1,3-benzothiazol-2-yl]-N-(2-sulfamoylethyl)acetamide]
14	787			NS(=O)(=O)CCNC(=O)C(c1nc2ccc(-c3ccnc(O)c3F)cc2s1)S(=O)(=O)CCC(F)(F)F (centres unmarked) [Example B375, 2-[6-(3-fluoro-2-hydroxy-pyridin-4-yl)-1,3-benzothiazol-2-yl]-N-(2-sulfamoylethyl)-2-(3,3,3-trifluoropropanesulfonyl)a-cetamide]
0.7	6.7			COCc1ccc(-c2ccc3sc(C(C(=O)NCCS(N)(=O)=O)S(C)(=O)=O)nc3c2)cc1 (centres unmarked) [Example B378, 2-methanesulfonyl-2-{5-[4-(methoxymethyl)phen-yl]-1,3-benzothiazol-2-yl}-N-(2-sulfamoylethyl)acetamide]
1.1	40.2			CS(=O)(=O)C(C(=O)NCCS(N)(=O)=O)c1nc2cc(-c3ccncc3F)ccc2s1 (centres unmarked) [Example B381, 2-[5-(3-fluoropyridin-4-yl)-1,3-benzothiazol-2-yl]-2-methanesulfonyl-N-(2-sulfamoylethyl)acetamide]
0.7	13			CS(=O)(=O)C(C(=O)NCCS(N)(=O)=O)c1nc2cc(-c3cccnc3F)ccc2s1 (centres unmarked) [Example B383, 2-[5-(2-fluoropyridin-3-yl)-1,3-benzothiazol-2-yl]-2-methanesulfonyl-N-(2-sulfamoylethyl)acetamide]
		25	53.4	CC(C)(C)OC(=O)c1ccc2sc(C(C(=O)NCCS(N)(=O)=O)S(C)(=O)=O)nc2c1 (centres unmarked) [Example B391, tert-Butyl 2-(1-(methylsulfonyl)-2-oxo-2-((2-sulfamoylethyl)amino)ethyl)-1,3-benzothiazole-5-carboxylate]
